Measurements reported in patent US20230263822A1, “MODULATION OF FACTOR 11 EXPRESSION” (Ionis Pharmaceuticals, Inc., priority 2008, published 2023).

Tests used:
[1] = parameters: species or system Sprague-Dawley rats; conditions: rat, in vivo
Description: Three days after the last dose, the rats were sacrificed and livers and kidneys were collected for analysis.
The concentration of the full-length oligonucleotide as well as the total oligonucleotide concentration (including the degraded form) was measured. The method used is a modification of previously published methods (Leeds et al., 1996; Geary et al., 1999) which consist of a phenol-chloroform (liquid-liquid) extraction followed by a solid phase extraction. An internal standard (ISIS 355868, a 27-mer 2′-O-methoxyethyl modified phosphorothioate oligonucleotide, […], designated herein as SEQ ID NO: 270) was added prior to extraction. […] The results are presented in Tables 77 and 78, expressed as μg/g liver or kidney tissue. Half-lives were then calculated using WinNonlin software ([…]).

human Factor 11 mRNA = experiment: Dose-dependent inhibition of human Factor 11 in HepB3 cells, electroporation (Example 7); type: cell-based; conditions: for percent inhibition of human Factor 11 mRNA relative to untreated control cells: ~16 hours
Description: The gapmers were also transfected via electroporation and their dose dependent inhibition of human Factor 11 mRNA was measured. Cells were plated at a density of 20,000 cells per well and transfected via electroporation with 41.15 nM, 123.457 nM, 370.37 nM, 1111.11 nM, 3333.33 nM, and 10,000 nM concentrations of antisense oligonucleotide, as specified in Table 15. After a treatment period of approximately 16 hours, RNA was isolated from the cells and human Factor 11 mRNA levels were measured by quantitative real-time PCR. Human Factor 11 primer probe set RTS 2966 was used to measure mRNA levels. Factor 11 mRNA levels were adjusted according to total RNA content, as measured by RIBOGREEN. Results are presented as percent inhibition of human Factor 11, relative to untreated control cells.

Substance	Half-life in the liver and kidney [1] [days]	IC50 (human Factor 11 mRNA) [nM]	percent inhibition of human Factor 11 mRNA relative to untreated control cells (human Factor 11 mRNA; 41.15 nM) [%]	percent inhibition of human Factor 11 mRNA relative to untreated control cells (human Factor 11 mRNA; 123.457 nM) [%]	percent inhibition of human Factor 11 mRNA relative to untreated control cells (human Factor 11 mRNA; 370.37 nM) [%]	percent inhibition of human Factor 11 mRNA relative to untreated control cells (human Factor 11 mRNA; 1111.11 nM) [%]	percent inhibition of human Factor 11 mRNA relative to untreated control cells (human Factor 11 mRNA; 3333.33 nM) [%]	percent inhibition of human Factor 11 mRNA relative to untreated control cells (human Factor 11 mRNA; 10000 nM) [%]
416858 (antisense ACGGCATTGGTGCACAGTTT; 5-10-5 gapmer, further chemistry not given here) [compound 416858]	26	300	23	45	52	64	87	92
416864 (antisense GGCAGCGGACGGCATTGGTG; 5-10-5 gapmer, further chemistry not given here) [compound 416864]	13	2200	4	3	6	35	75	87
416892 (antisense GCCCTTCATGTCTAGGTCCA; 3-14-3 chimeric gapmer, further chemistry not given here) [compound 416892]	12	610	9	12	28	65	89	98
416925 (antisense GGTGCACAGTTTCTGGCAGG; 3-14-3 gapmer chemistry, further chemistry not given here) [compound 416925]	12	200	27	39	50	73	88	96
416999 (antisense GCACAGTTTCTGGCAGGCCT; 2-13-5 gapmer chemistry, further chemistry not given here) [compound 416999]	9	160	31	45	62	78	94	97
417002 (antisense GGTGCACAGTTTCTGGCAGG; 2-13-5 gapmer chemistry, further chemistry not given here) [compound 417002]	11	1200	19	0	31	47	86	93
417003 (antisense TGGTGCACAGTTTCTGGCAG; 2-13-5 gapmer chemistry, further chemistry not given here) [compound 417003]	10	1500	31	0	15	43	84	92
